Source: article PMC5218480 (PLoS ONE, 2017)

System: MV-4-11 cells
Assay: Gene expression microarray analysis (Affymetrix PrimeView) and GSEA
Format: cell-based, human
Set-up: RFU PODN (11730768_x_at) / Fold change /veh PODN (11730768_x_at) / RFU LINC00158 (11744669_a_at) / Fold change /veh LINC00158 (11744669_a_at) / RFU DUSP10 (11751237_a_at) / Fold change /veh DUSP10 (11751237_a_at) / RFU ID3 (11757404_x_at) / Fold change /veh ID3 (11757404_x_at) / RFU PLEKHG5 (11737974_s_at) / Fold change /veh PLEKHG5 (11737974_s_at) / RFU LRRC4B (11730491_at) / Fold change /veh LRRC4B (11730491_at) / RFU GIMAP4 (11747438_a_at) / Fold change /veh GIMAP4 (11747438_a_at) / RFU KRT8 (11758183_x_at) / Fold change /veh KRT8 (11758183_x_at) / RFU CNN1 (11734310_a_at) / Fold change /veh CNN1 (11734310_a_at) / RFU VPS37D (11726825_at) / Fold change /veh VPS37D (11726825_at) / RFU C10orf10 (11716522_x_at) / Fold change /veh C10orf10 (11716522_x_at) / RFU KIR2DL2 /// KIR2DL4 /// KIR2DL5A /// KIR2DL5B /// KIR2DS1 /// KIR2DS2 /// KIR2DS3 /// KIR2DS4 /// KIR3DL3 /// KIR3DL3 /// KIR3DS1 (11738374_at) / Fold change /veh KIR2DL2 /// KIR2DL4 /// KIR2DL5A /// KIR2DL5B /// KIR2DS1 /// KIR2DS2 /// KIR2DS3 /// KIR2DS4 /// KIR3DL3 /// KIR3DL3 /// KIR3DS1 (11738374_at) / RFU C1QL1 (11718748_at) / Fold change /veh C1QL1 (11718748_at) / RFU TMPRSS4 (11747572_a_at) / Fold change /veh TMPRSS4 (11747572_a_at) / RFU HAMP (11756126_x_at) / Fold change /veh HAMP (11756126_x_at) / RFU RNFT2 (11725882_a_at) / Fold change /veh RNFT2 (11725882_a_at) / RFU NR4A2 (11747474_a_at) / Fold change /veh NR4A2 (11747474_a_at) / RFU ABCC12 (11746883_a_at) / Fold change /veh ABCC12 (11746883_a_at) / RFU TMEM136 (11760407_x_at) / Fold change /veh TMEM136 (11760407_x_at) / RFU CLDN22 /// WWC2 (11732394_at) / Fold change /veh CLDN22 /// WWC2 (11732394_at) / RFU HLA-DPB1 (11760878_x_at) / Fold change /veh HLA-DPB1 (11760878_x_at) / RFU SPINT1 (11716480_a_at) / Fold change /veh SPINT1 (11716480_a_at) / RFU GAP43 (11754022_s_at) / Fold change /veh GAP43 (11754022_s_at) / RFU A4GNT (11735810_at) / Fold change /veh A4GNT (11735810_at) / RFU PRB3 (11715151_x_at) / Fold change /veh PRB3 (11715151_x_at) / RFU TUBB4B (11761932_at) / Fold change /veh TUBB4B (11761932_at) / RFU CAPN14 (11732068_a_at) / Fold change /veh CAPN14 (11732068_a_at) / RFU TMCC2 (11721928_a_at) / Fold change /veh TMCC2 (11721928_a_at) / RFU IRGQ (11745062_a_at) / Fold change /veh IRGQ (11745062_a_at) / RFU FAM174B (11720279_a_at) / Fold change /veh FAM174B (11720279_a_at) / RFU TMPRSS4 (11748680_a_at) / Fold change /veh TMPRSS4 (11748680_a_at) / RFU FAM212B (11763350_a_at) / Fold change /veh FAM212B (11763350_a_at) / RFU PLEKHG5 (11743358_a_at) / Fold change /veh PLEKHG5 (11743358_a_at) / RFU ZSCAN30 (11745921_a_at) / Fold change /veh ZSCAN30 (11745921_a_at) / RFU CMKLR1 (11741424_a_at) / Fold change /veh CMKLR1 (11741424_a_at) / RFU LOC101060620 /// MAPK8IP1 (11723275_at) / Fold change /veh LOC101060620 /// MAPK8IP1 (11723275_at) / RFU SPTSSB (11747773_x_at) / Fold change /veh SPTSSB (11747773_x_at) / RFU PRSS12 (11739890_at) / Fold change /veh PRSS12 (11739890_at) / RFU BIN1 (11741810_x_at) / Fold change /veh BIN1 (11741810_x_at) / RFU WNT11 (11732464_a_at) / Fold change /veh WNT11 (11732464_a_at) / RFU C10orf10 (11716521_a_at) / Fold change /veh C10orf10 (11716521_a_at) / RFU C5orf56 (11738089_at) / Fold change /veh C5orf56 (11738089_at) / RFU CYB561 (11721691_x_at) / Fold change /veh CYB561 (11721691_x_at) / RFU ANKRD19P (11752326_a_at) / Fold change /veh ANKRD19P (11752326_a_at) / RFU OR2T12 /// OR2T33 /// OR2T8 (11738714_s_at) / Fold change /veh OR2T12 /// OR2T33 /// OR2T8 (11738714_s_at) / RFU VCAN (11748164_a_at) / Fold change /veh VCAN (11748164_a_at) / RFU JSRP1 (11732532_at) / Fold change /veh JSRP1 (11732532_at) / RFU KRTAP10-11 (11738290_x_at) / Fold change /veh KRTAP10-11 (11738290_x_at) / RFU MYO3A (11730013_a_at) / Fold change /veh MYO3A (11730013_a_at) / RFU EBF3 (11725865_a_at) / Fold change /veh EBF3 (11725865_a_at) / RFU CAMK2N1 (11719241_x_at) / Fold change /veh CAMK2N1 (11719241_x_at) / RFU C5orf56 (11738088_a_at) / Fold change /veh C5orf56 (11738088_a_at) / RFU OLFML3 (11715873_a_at) / Fold change /veh OLFML3 (11715873_a_at) / RFU LOC100653217 /// NTM (11731650_a_at) / Fold change /veh LOC100653217 /// NTM (11731650_a_at) / RFU MAPK11 (11762145_a_at) / Fold change /veh MAPK11 (11762145_a_at) / RFU FIZ1 (11724087_x_at) / Fold change /veh FIZ1 (11724087_x_at) / RFU OASL (11726364_x_at) / Fold change /veh OASL (11726364_x_at) / RFU SOX15 (11748057_x_at) / Fold change /veh SOX15 (11748057_x_at) / RFU CD79A (11719716_a_at) / Fold change /veh CD79A (11719716_a_at) / RFU HIST1H1D (11736915_at) / Fold change /veh HIST1H1D (11736915_at) / RFU CASKIN2 (11723855_a_at) / Fold change /veh CASKIN2 (11723855_a_at) / RFU LOC730098 (11760151_x_at) / Fold change /veh LOC730098 (11760151_x_at) / RFU OR4N2 (11742367_at) / Fold change /veh OR4N2 (11742367_at) / RFU PRRT2 (11749266_a_at) / Fold change /veh PRRT2 (11749266_a_at) / RFU SNX32 (11753110_a_at) / Fold change /veh SNX32 (11753110_a_at) / RFU CDHR5 (11726645_a_at) / Fold change /veh CDHR5 (11726645_a_at) / RFU RCAN1 (11760418_a_at) / Fold change /veh RCAN1 (11760418_a_at) / RFU FAM167A (11723789_a_at) / Fold change /veh FAM167A (11723789_a_at) / RFU FAM26E (11764081_at) / Fold change /veh FAM26E (11764081_at) / RFU ISYNA1 (11749810_s_at) / Fold change /veh ISYNA1 (11749810_s_at) / RFU ACY1 (11761880_at) / Fold change /veh ACY1 (11761880_at) / RFU 11764098_at / Fold change /veh 11764098_at / RFU SAMD14 (11745864_x_at) / Fold change /veh SAMD14 (11745864_x_at) / RFU NPB (11741838_a_at) / Fold change /veh NPB (11741838_a_at) / RFU TMPRSS6 (11731388_a_at) / Fold change /veh TMPRSS6 (11731388_a_at) / RFU KRTAP10-2 (11738614_at) / Fold change /veh KRTAP10-2 (11738614_at) / RFU ARHGAP8 /// PRR5-ARHGAP8 (11727945_x_at) / Fold change /veh ARHGAP8 /// PRR5-ARHGAP8 (11727945_x_at) / RFU KRTAP5-7 /// NADSYN1 (11734609_at) / Fold change /veh KRTAP5-7 /// NADSYN1 (11734609_at) / RFU RASL12 (11751679_a_at) / Fold change /veh RASL12 (11751679_a_at) / RFU CDKN2B (11736163_a_at) / Fold change /veh CDKN2B (11736163_a_at) / RFU PRF1 (11729649_at) / Fold change /veh PRF1 (11729649_at) / RFU, ZNF638 /// ZNF638-IT1 / Fold change vs veh, ZNF638 /// ZNF638-IT1 / RFU, PANK3 / Fold change vs veh, PANK3 / RFU, SH3YL1 / Fold change vs veh, SH3YL1 / RFU, ZEB2 / Fold change vs veh, ZEB2 / RFU, NRIP1 / Fold change vs veh, NRIP1 / RFU, PTTG1IP / Fold change vs veh, PTTG1IP / RFU, CAPN2 / Fold change vs veh, CAPN2 / RFU, MED14 / Fold change vs veh, MED14 / RFU, SNORA58 / Fold change vs veh, SNORA58 / RFU, C1orf63 / Fold change vs veh, C1orf63 / RFU, LRRFIP1 / Fold change vs veh, LRRFIP1 / RFU, NDUFAF7 / Fold change vs veh, NDUFAF7 / RFU, SLC12A2 / Fold change vs veh, SLC12A2 / RFU, IBTK / Fold change vs veh, IBTK / RFU, ESF1 / Fold change vs veh, ESF1 / Fold change vs veh, TMEM50B / RFU, TAOK1 / Fold change vs veh, TAOK1 / RFU, ACBD3 / Fold change vs veh, ACBD3 / RFU, TMA16 / Fold change vs veh, TMA16 / RFU, RWDD3 / Fold change vs veh, RWDD3 / RFU, BCAT1 / Fold change vs veh, BCAT1 / RFU, EDEM3 / Fold change vs veh, EDEM3 / RFU, TMEM33 / Fold change vs veh, TMEM33 / RFU, WDR75 / Fold change vs veh, WDR75 / RFU, AHCTF1 / Fold change vs veh, AHCTF1 / RFU, TFRC / Fold change vs veh, TFRC / RFU, ZDHHC17 / Fold change vs veh, ZDHHC17 / RFU, NOM1 / Fold change vs veh, NOM1 / RFU, ARL8B / Fold change vs veh, ARL8B / RFU, ZBTB11 / Fold change vs veh, ZBTB11 / RFU, TAMM41 / Fold change vs veh, TAMM41 / RFU, KIAA1704 /// LOC100996395 / Fold change vs veh, KIAA1704 /// LOC100996395 / RFU, ING1 / Fold change vs veh, ING1 / RFU, TRMT61B / Fold change vs veh, TRMT61B / RFU, FUBP3 / Fold change vs veh, FUBP3 / RFU, TP53 / Fold change vs veh, TP53 / RFU, TNKS2 / Fold change vs veh, TNKS2 / RFU, ZFP14 / Fold change vs veh, ZFP14 / RFU, ACTR2 / Fold change vs veh, ACTR2 / RFU, PPP3R1 / Fold change vs veh, PPP3R1 / RFU, PIK3R1 / Fold change vs veh, PIK3R1 / RFU, HNRNPA1 / Fold change vs veh, HNRNPA1 / RFU, RNF170 / Fold change vs veh, RNF170 / RFU, ZNF28 / Fold change vs veh, ZNF28 / RFU, RNGTT / Fold change vs veh, RNGTT / RFU, OGT / Fold change vs veh, OGT / RFU, BRD1 / Fold change vs veh, BRD1 / RFU, MARS / Fold change vs veh, MARS / RFU, ZNF655 / Fold change vs veh, ZNF655 / RFU, FAHD1 / Fold change vs veh, FAHD1 / RFU, BDP1 / Fold change vs veh, BDP1 / RFU, LRRCC1 / Fold change vs veh, LRRCC1 / RFU, ARID1A / Fold change vs veh, ARID1A / RFU, ZNF146 / Fold change vs veh, ZNF146 / RFU, ZNF330 / Fold change vs veh, ZNF330 / RFU, GPN3 / Fold change vs veh, GPN3 / RFU, C9orf123 / Fold change vs veh, C9orf123 / RFU, N4BP2L2 / Fold change vs veh, N4BP2L2 / RFU, ARFIP1 / Fold change vs veh, ARFIP1 / RFU, FAM179B / Fold change vs veh, FAM179B / RFU, BCL10 / Fold change vs veh, BCL10 / RFU, UHRF1BP1L / Fold change vs veh, UHRF1BP1L / RFU, BET1 / Fold change vs veh, BET1 / RFU, CNOT2 / Fold change vs veh, CNOT2 / RFU, ZNF268 / Fold change vs veh, ZNF268 / Fold change vs veh, ZNF507 / RFU, DGCR2 / Fold change vs veh, DGCR2 / RFU, WDSUB1 / Fold change vs veh, WDSUB1 / Fold change vs veh, HSP90B1 /// MIR3652 / RFU, ADSS / Fold change vs veh, ADSS / RFU, GK / Fold change vs veh, GK / RFU, ZNF148 / Fold change vs veh, ZNF148 / RFU, TAF9 / Fold change vs veh, TAF9 / RFU, SLC1A5 / Fold change vs veh, SLC1A5 / RFU, SLMO2 / Fold change vs veh, SLMO2 / RFU, ABCC4 / Fold change vs veh, ABCC4 / RFU, LOC101060439 /// RAP1B / Fold change vs veh, LOC101060439 /// RAP1B / RFU, RFX7 / Fold change vs veh, RFX7 / RFU, GTPBP10 / Fold change vs veh, GTPBP10 / RFU, CNEP1R1 / Fold change vs veh, CNEP1R1 / RFU, BIVM-ERCC5 /// ERCC5 / Fold change vs veh, BIVM-ERCC5 /// ERCC5 / RFU, ILF3 / Fold change vs veh, ILF3 / RFU 11762660_at / Fold change /veh 11762660_at / RFU VCAN (11757783_s_at) / Fold change /veh VCAN (11757783_s_at) / RFU DDX43 (11728927_at) / Fold change /veh DDX43 (11728927_at) / RFU KRT8 (11758188_x_at) / Fold change /veh KRT8 (11758188_x_at) / RFU NKD1 (11759106_at) / Fold change /veh NKD1 (11759106_at) / RFU SRD5A1 (11742802_a_at) / Fold change /veh SRD5A1 (11742802_a_at) / RFU TPSAB1 /// TPSB2 (11721975_s_at) / Fold change /veh TPSAB1 /// TPSB2 (11721975_s_at) / RFU GSTM3 (11746129_a_at) / Fold change /veh GSTM3 (11746129_a_at) / RFU IL23R (11737362_x_at) / Fold change /veh IL23R (11737362_x_at) / RFU TMEM51 (11727254_a_at) / Fold change /veh TMEM51 (11727254_a_at) / RFU PIWIL2 (11732686_x_at) / Fold change /veh PIWIL2 (11732686_x_at) / RFU ORM1 (11744905_x_at) / Fold change /veh ORM1 (11744905_x_at) / RFU CCDC152 (11743942_at) / Fold change /veh CCDC152 (11743942_at) / RFU ECM1 (11717891_a_at) / Fold change /veh ECM1 (11717891_a_at) / RFU IL23R (11748794_a_at) / Fold change /veh IL23R (11748794_a_at) / RFU TNFAIP8L3 (11732012_x_at) / Fold change /veh TNFAIP8L3 (11732012_x_at) / RFU MBOAT4 (11741988_at) / Fold change /veh MBOAT4 (11741988_at) / RFU 11764193_at / Fold change /veh 11764193_at / RFU TMEM53 (11763286_at) / Fold change /veh TMEM53 (11763286_at) / RFU MAGEB2 (11727129_at) / Fold change /veh MAGEB2 (11727129_at) / RFU TMEM200A (11744735_a_at) / Fold change /veh TMEM200A (11744735_a_at) / RFU CCDC152 (11751479_a_at) / Fold change /veh CCDC152 (11751479_a_at) / RFU FAM211A (11726209_a_at) / Fold change /veh FAM211A (11726209_a_at) / RFU RGS16 (11746705_a_at) / Fold change /veh RGS16 (11746705_a_at) / RFU VCAN (11755009_s_at) / Fold change /veh VCAN (11755009_s_at) / RFU RHOB (11743442_s_at) / Fold change /veh RHOB (11743442_s_at) / RFU RGS16 (11720943_a_at) / Fold change /veh RGS16 (11720943_a_at) / RFU RGS16 (11720944_at) / Fold change /veh RGS16 (11720944_at) / RFU, VPS4B / Fold change vs veh, VPS4B / RFU, CREB1 / Fold change vs veh, CREB1 / RFU, DNAJC13 / Fold change vs veh, DNAJC13 / RFU, GNAQ / Fold change vs veh, GNAQ / RFU, CDK5R1 / Fold change vs veh, CDK5R1 / RFU, ZRANB3 / Fold change vs veh, ZRANB3 / RFU, CUL4A / Fold change vs veh, CUL4A / RFU, CCNY / Fold change vs veh, CCNY / RFU, UFL1 / Fold change vs veh, UFL1 / RFU, COG3 / Fold change vs veh, COG3 / RFU, DIAPH2 / Fold change vs veh, DIAPH2 / RFU, SKA2 / Fold change vs veh, SKA2 / RFU, AFF3 / Fold change vs veh, AFF3 / RFU, LMF1 / Fold change vs veh, LMF1 / RFU, IPO11 / Fold change vs veh, IPO11 / RFU, DFFB / Fold change vs veh, DFFB / RFU, FOXP1 / Fold change vs veh, FOXP1 / RFU, CARD8 / Fold change vs veh, CARD8 / RFU, STRN3 / Fold change vs veh, STRN3 / RFU, ADK / Fold change vs veh, ADK / RFU, RASSF2 / Fold change vs veh, RASSF2 / RFU, WIPF1 / Fold change vs veh, WIPF1 / RFU, LARP1B / Fold change vs veh, LARP1B / RFU, RASA1 / Fold change vs veh, RASA1 / RFU, RB1 / Fold change vs veh, RB1 / RFU, PPFIA1 / Fold change vs veh, PPFIA1 / RFU, MAT2A / Fold change vs veh, MAT2A / RFU, CCT5 / Fold change vs veh, CCT5 / RFU, WDR92 / Fold change vs veh, WDR92 / RFU, CUX1 / Fold change vs veh, CUX1 / RFU, TTC7A / Fold change vs veh, TTC7A / RFU, TMEM135 / Fold change vs veh, TMEM135 / RFU, DEPTOR / Fold change vs veh, DEPTOR / RFU, CPM / Fold change vs veh, CPM / RFU, DNAJB6 / Fold change vs veh, DNAJB6 / RFU, CACNA2D3 / Fold change vs veh, CACNA2D3 / RFU, DTX4 / Fold change vs veh, DTX4 / RFU, TFCP2 / Fold change vs veh, TFCP2 / RFU, GMCL1 /// GMCL1P1 / Fold change vs veh, GMCL1 /// GMCL1P1 / RFU, AEBP2 / Fold change vs veh, AEBP2 / RFU, SNHG1 /// SNORD22 /// SNORD25 /// SNORD26 /// SNORD27 /// SNORD28 /// SNORD29 /// SNORD31 / Fold change vs veh, SNHG1 /// SNORD22 /// SNORD25 /// SNORD26 /// SNORD27 /// SNORD28 /// SNORD29 /// SNORD31 / Fold change (Aza/veh), C12orf56 (ProbeSet 11735607_a_at) / Fold change (ACY-1035/veh), C12orf56 (ProbeSet 11735607_a_at) / Fold change (Aza/veh), FGFR1OP (ProbeSet 11751329_s_at) / Fold change (ACY-1035/veh), FGFR1OP (ProbeSet 11751329_s_at) / Fold change (Aza/veh), VPS36 (ProbeSet 11739960_a_at) / Fold change (ACY-1035/veh), VPS36 (ProbeSet 11739960_a_at) / RFU SYPL1 (11715823_x_at) / Fold change /veh SYPL1 (11715823_x_at) / RFU IGFBP7 (11715501_s_at) / Fold change /veh IGFBP7 (11715501_s_at) / RFU REEP3 (11722064_at) / Fold change /veh REEP3 (11722064_at) / RFU IGLL1 (11728026_x_at) / Fold change /veh IGLL1 (11728026_x_at): dose or concentration left out as unconfirmed
Details: MV-4-11 cells, 48 hours

## Nc1ncn([C@@H]2O[C@H](CO)[C@@H](O)[C@H]2O)c(=O)n1 [azacitidine]
  Fold change /veh CCDC152 (11751479_a_at): 2.85
